The text below walks through data of patent US20070082903A1, “Remedy for rheumatoid arthritis” (priority 2003, published 2007).

Some results are limits rather than exact numbers.

In data set [1] the test system is mice with collagen arthritis. The data set is described as follows: antiarthritic effect in mice with collagen arthritis. It is filed as in vivo. As to conditions: considered on the basis of the rat adjuvant arthritis and mouse collagen arthritis results. How it is done: On the other hand, it is known that 3-[(1S)-1-(2-fluorobiphenyl-4-yl)ethyl]-5-{[amino(morpholin-4-yl)methylene]amino}isoxazole (hereinafter referred to also as “compound (I)” or “SMP-114”) is useful as, for example, an excellent medicament for treating autoimmune diseases, inflammatory diseases and the like.
It was 5 mg/kg (once-a-day oral administration) in the case of mice with collagen arthritis (F. Nishikaku, “Annals of the Rheumatic Diseases”, vol. 61 supplement 1, p. 194 (2002)).

Data set [2] is described as follows: repeated oral administration toxicity test, SMP-114 concentration in serum (HPLC-fluorescence). It is filed as in vivo. As to conditions: both sexes, Crj:CD(SD), rat, rats. How it is done: Next, a repeated oral administration toxicity test on Crj:CD(SD) rats aged 5 weeks was carried out for each of one month and six months (once-a-day oral administration in both cases). SMP-114 was repeatedly administered to male and female SD strain rats (10 rats per group) for one month in a dose of each of 10, 30, 100 and 300 mg/kg, and its subacute toxicity and the recovery by one month of the suspension of the administration were investigated. In addition, the time-course of SMP-114 concentration in serum after each of one run of the administration and 30 days of the repeated administration was investigated. […] In addition, the time-course of SMP-114 concentration in serum after each of one run of the administration, 3 months of the repeated administration and 6 months of the repeated administration was investigated. The SMP-114 concentration in serum was measured by an HPLC-fluorescence method (fluorescence wavelength: 319 nm) after extracting SMP-114 from each sample with diethyl ether under slight acidic conditions (pH 4.7).

Data set [3] is described as follows: repeated administration test on healthy male Japanese (7 days). Type of data set: in vivo, human. How it is done:
AUC0-24 level of the agent in its repeated administration to humans A repeated administration test on healthy male Japanese of 20 to 40 years old was carried out. Using the SMP-114 tablets and placebo tablets, 80 mg of each of the placebo and SMP-114 was orally administered once a day for 7 days by a placebo controlled double-blind method (8 cases of SMP-114 administration and 2 cases of placebo administration: 10 subjects in total).

A short description of data set [4]: tolerance test by a single administration, healthy person Japanese. It is filed as in vivo, human. The following applies: single dose 10, 20, 40, 80 or 120 mg, tablets, hungry, healthy male Japanese. The method, then: • (1) A single-administration test on healthy male Japanese (20 to 40 years old, body weight: less than 80 kg and not less than 50 kg, degree of corpulence: ±20% or less) was carried out. Using the SMP-114 tablets and a placebo as control, 10, 20, 40, 80 or 120 mg of SMP-114 was administered by a single-blind method when the subjects were hungry (at each dose, 6 cases of SMP-114 administration and 2 cases of placebo administration: 40 subjects in total). As to items of evaluation related to safety, observations about the following were carried out: vital signs (body temperature, blood pressure-pulse rate and respiration rate), 12-induction electrocardiogram, clinical examinations [hematological examination, blood biochemical examination, endocrinological examinations (FT4, FT3 and TSH), serological examination (haptoglobin) and urinalysis], and harmful matters. As items of evaluation related to pharmacokinetics, the concentrations of SMP-114 and its metabolites in serum and urine were measured. […]

Data set [5] is described as follows: tolerance test by a single administration, healthy male Caucasians. Type of data set: in vivo, human. The following applies: single oral dose 10, 20, 40, 60, 80, 100, 120 or 140 mg, suspension, fasted.

Turning to `C[C@@H](c1ccc(-c2ccccc2)c(F)c1)c1cc(/N=C(/N)N2CCOCC2)on1` [SMP-114, 3-[(1S)-1-(2-fluorobiphenyl-4-yl)ethyl]-5-{[amino(morpholin-4-yl)methylene]amino}isoxazole], the “dose at which SMP-114 exhibits its efficacy” value in data set [1] is at least 5 mg/kg. Moreover, the AUC(0-t) was 2710 to 3580 ng·h/mL in data set [2] (oral, calculated for a dose of 5 mg/kg, read-out: AUC0-24 for the exhibition of efficacy); 3250 ng·h/mL in data set [2] (6 mg/kg oral once a day for 6 months, read-out: AUC0-24); 7160 ng·h/mL in data set [2] (10 mg/kg oral once a day for one month, read-out: AUC0-24); 15300 ng·h/mL in data set [3] (human, serum, 80 mg oral once a day for 7 days, tablets, read-out: AUC0-24 at a steady state). In addition, in data set [3] (80 mg once a day for 7 days), the accumulative property entry was “no accumulative property”. In data set [3] (80 mg oral once a day for 7 days), the tolerance entry is “satisfactory”. Moreover, the “side effects undesirable with respect to tolerance” value in data set [4] and in data set [5] was “observed at none of the doses” throughout.
